This is an account of results in ChEMBL document CHEMBL5725551, “Inhibitors of the renal outer medullary potassium channel” (2017).

pIC50: −log10 of the molar value.

For the assay, the target named is T1, ATP-sensitive inward rectifier potassium channel 1 (Homo sapiens, UniProt P48048).
T1 sequence (P48048 whole entry): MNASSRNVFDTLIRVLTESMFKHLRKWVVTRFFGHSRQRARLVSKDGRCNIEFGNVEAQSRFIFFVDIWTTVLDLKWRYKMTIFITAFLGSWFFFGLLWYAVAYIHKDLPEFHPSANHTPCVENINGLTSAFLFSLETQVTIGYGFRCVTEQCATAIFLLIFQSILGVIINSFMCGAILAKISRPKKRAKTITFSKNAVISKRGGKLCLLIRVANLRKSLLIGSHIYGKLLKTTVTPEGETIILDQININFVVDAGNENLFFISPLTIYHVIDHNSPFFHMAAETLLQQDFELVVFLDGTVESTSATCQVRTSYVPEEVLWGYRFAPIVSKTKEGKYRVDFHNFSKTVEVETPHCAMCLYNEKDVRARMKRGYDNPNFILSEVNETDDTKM
In words: Thallium Flux Assay: A Thallium Flux Assay was performed on each of the final product compounds of the Examples. This assay has been described previously; see, e.g., PCT Published Application WO 2013/062900.
`CC1=C(N2CC[C@]3(CC[C@@H](N(C)Cc4cnc(-n5cnnn5)s4)CC3)C2=O)COC1=O` had a pIC50 of 7.52.

Compound `C[C@@H]1C[C@]2(CC[C@@H](NCc3cnc(-n4cnnn4)s3)CC2)C(=O)N1C1=CC(=O)OC1` gave a pIC50 of 6.72.

On to `CC1=C(N2CC[C@]3(CC[C@@H](NC(C)c4cnc(-n5cnnn5)cn4)CC3)C2=O)COC1=O` (stereo not given in full), for which the pIC50 was 6.77.

`CC1=C(N2C(=O)[C@]3(CC[C@H](NCc4cnc(-n5cnnn5)cn4)CC3)C[C@H]2C)COC1=O` showed a pIC50 of 7.19.

The compound `CC1=C(N2C(=O)[C@]3(CC[C@H](N(C)Cc4ccc(-n5cnnn5)nn4)CC3)C[C@@H]2C)COC1=O` gave a pIC50 of 6.70.

For `CC1=C(N2CC[C@]3(CC[C@@H](N[C@@H](C)c4ccc(-n5cnnn5)nn4)CC3)C2=O)COC1=O`, the pIC50 is 6.49.

`CC1C[C@]2(CC[C@@H](NCc3ccc(-n4cnnn4)nn3)CC2)C(=O)N1C1=CC(=O)OC1` (stereo not given in full) gave a pIC50 of 7.55.

The compound `CC1=C(N2CC[C@]3(CC[C@@H](NCc4cnc(-n5cnnn5)s4)CC3)C2=O)COC1=O` had a pIC50 of 7.04.

`CC1=C(N2CC[C@]3(CC[C@@H](N(Cc4ccc(-n5cnnn5)nn4)Cc4ncco4)CC3)C2=O)COC1=O` showed a negative-log IC50 (pIC50) of 6.68.

In the case of `CC1=C(N2CC[C@]3(CC[C@@H](NCc4cc(C)c(-n5cnnn5)nn4)CC3)C2=O)COC1=O`, the pIC50 was 8.08.

Regarding `CC1=C(N2CC[C@]3(CC[C@@H](N(C)Cc4ccc(-n5ncnn5)nc4)CC3)C2=O)COC1=O`, the pIC50 is 6.19.

The compound `CC1=C(N2C(=O)[C@]3(CC[C@H](N(C)Cc4cnc(-n5cnnn5)cn4)CC3)C[C@H]2C)COC1=O` had a negative-log IC50 (pIC50) of 6.70.

`CC1=C(N2C(=O)[C@]3(CC[C@H](NCc4ccc(-n5cnnn5)nn4)CC3)C[C@H]2C)COC1=O` showed a pIC50 of 7.64.

The compound `C[C@H]1C[C@]2(CC[C@@H](NCc3ccc(-n4cnnn4)nn3)CC2)C(=O)N1C1=CC(=O)OC1` had a pIC50 of 7.52.

With `CC1=C(N2CC[C@]3(CC[C@@H](N(CCO)Cc4ccc(-n5cnnn5)nn4)CC3)C2=O)COC1=O`, the negative-log IC50 (pIC50) is 6.82.

Take `CC1=C(N2C(=O)[C@]3(CC[C@H](N(C)Cc4ccc(-n5cnnn5)nn4)CC3)C[C@H]2C)COC1=O`: the pIC50 was 6.70.

Compound `CC1=C(N2C(=O)[C@]3(CC[C@@H](N(C)Cc4cnc(-n5cnnn5)cn4)CC3)C[C@@H]2C)COC1=O` had a negative-log IC50 (pIC50) of 6.51.

Compound `C[C@H]1C[C@]2(CC[C@@H](NCc3cnc(-n4cnnn4)s3)CC2)C(=O)N1C1=CC(=O)OC1` gave a pIC50 of 7.62.

`CC1=C(N2CCC3(CCC(NCc4ccc5c(c4C)Cn4nnnc4-5)CC3)C2=O)COC1=O` (stereo not given) had a negative-log IC50 (pIC50) of 7.72.

`CC1=C(N2C(=O)[C@]3(CC[C@H](NCc4ccc(-n5cnnn5)nn4)CC3)C[C@@H]2C)COC1=O` showed a pIC50 of 7.40.

Take `C[C@H]1C[C@]2(CC[C@H](NCc3ccc(-n4cnnn4)nn3)CC2)C(=O)N1C1=CC(=O)OC1`: the pIC50 is 8.08.

In the case of `C[C@@H]1C[C@]2(CC[C@@H](N(C)Cc3ccc(-n4cnnn4)nn3)CC2)C(=O)N1C1=CC(=O)OC1`, the pIC50 is 6.57.

The compound `CC1C[C@]2(CC[C@@H](NCc3cnc(-n4cnnn4)cn3)CC2)C(=O)N1C1=CC(=O)OC1` (stereo not given in full) gave a pIC50 of 7.34.

`C[C@@H]1C[C@]2(CC[C@@H](NCc3ccc(-n4cnnn4)nn3)CC2)C(=O)N1C1=CC(=O)OC1`: the pIC50 is 6.96.

`CC1=C(N2C(=O)[C@]3(CC[C@@H](NCc4cnc(-n5cnnn5)cn4)CC3)C[C@@H]2C)COC1=O` showed a pIC50 of 6.38.

As a reminder, the pIC50 is the IC50 on a negative log10 scale, so that one unit is a factor of ten. Low values mean a large IC50, high ones a small IC50.
